Experimental data as given in patent US6518259B1, “Compositions for treating autoimmune disease” (The Regents of the University of Michigan, priority 1998, dated 2003).
Where a SMILES comes first, the peptide text is derived from it. The star is where a group is joined. Cbz = O=C(OCc1ccccc1)*; CH2F = FC*

Experiments:
Assay type in all cases: cell-based, human
[1] = system: RA EBV transformed target cells; experiment: Anti-Fas antibody CH-11-induced apoptosis of RA EBV transformed target cells with MEK1 inhibitor; details: 16 hr CH-11 200 ng/ml, FIG. 6
Method: As noted above, it is not intended that the present invention be limited to any one inhibitor. In this example, resistance to Fas-mediated cell killing is shown to be reversed by preincubation of target cells with a MEK1 inhibitor. Apoptosis of RA EBV transformed target cells was induced by 16 hr stimulation with anti-Fas antibody CH-11 (200 ng/ml) in the presence (FIG. 6, black bars) or absence (FIG. 6, open bars) of 100 µM of the MEK1 inhibitor 2-(2′-amino3′-methoxyphenyl-oxanaphthalen-4-one) (PD098059).

[2] = system: EBV transformed B cell targets from RA patients; experiment: Cytolysis of EBV transformed target cells by Vγ9/Vδ2 T cells, 4 hr 51Cr release assay
Method: Fas-mediated cell death in-vivo is thought to be triggered, primarily, by cytotoxic T cells. […] However, susceptibility to cytolysis is markedly different between the two groups when determined using standard 4 hour ^51Cr release assays. FIG. 2C is a bar graph showing the susceptibility to cytolysis by Vγ9/Vδ2 T cell clones determined in EBV transformed lines from 23 normal controls, 18 patients with RA, 6 patients with pauciarticular-onset juvenile arthritis (“pJA”), and 3 patients with autoimmune thyroiditis. Lymphoblastoid target lines from all 23 normal controls tested were efficiently killed by Vγ9/Vδ2 clones, while none of the lines from 18 RA patients were susceptible. […]
Inhibition of Fas-mediated death signaling by SPP was also examined using γδ […]. Cytolysis of EBV transformed target cells by Vγ9/Vδ2 T cells was determined by 4 hr ^51Cr release assay (FIG. 5C) in the presence (●) or absence (∘) of 2.5 μM DMS. At the end of incubation, targets were washed and susceptibility to killing by γδ T cells was assessed.
Additionally, pre-incubating RA targets with pertussis toxin reversed their resistance to Fas-mediated and γδ T cell-mediated killing (FIGS. 5D and 5E). […] Cell death was determined using the commercial MTS kit (Promega, Madison, Wis.). […]

[3] = system: EBV transformed B cell lines from RA patients; experiment: Anti-Fas antibody CH-11-mediated killing of EBV transformed B cell lines, MTS kit; details: preincubation 1 μg/ml for 1 hr, CH-11 100 ng/ml over a time course, FIG. 5D
Method: In this example, the susceptibility of lymphocytes to cell death is examined. As noted above, it is believed that prevention of immune-mediated self injury requires prompt elimination of activated lymphocytes at the end of an immune response. […] Briefly, PHA T cell lymphoblasts from 6 normal controls and 6 RA patients were established by stimulating peripheral blood mononuclear cells with 0.5 μg/ml PHA for 3 days, followed by expansion in 20 U/ml of recombinant human IL-2 (Collaborative Biomedical Products, Bedford, Mass.). Day-10 T cell lymphoblasts were incubated with 125 ng/ml of the agonist anti-Fas monoclonal antibody CH-11 (the antibody was immobilized and 1×10^5 cells per well were used). In all experiments, control mouse monoclonal IgM antibody (TEPC-183, from Sigma) was used in equivalent concentrations. Cell death was determined at different time points, using a commercial MTS kit (Promega, Madison. Wis.). Microplate wells were read by ELISA plate reader at 490 nm.
Additionally, pre-incubating RA targets with pertussis toxin reversed their resistance to Fas-mediated and γδ T cell-mediated killing (FIGS. 5D and 5E). […] Cell death was determined using the commercial MTS kit (Promega, Madison, Wis.). […] At the end of incubation, targets were washed and susceptibility to γδ T cell killing was determined using a 4 hr ^51Cr-release assay.

[4] = system: EBV transformed B cell lines from RA patients; experiment: Anti-Fas antibody CH-11-induced apoptosis of EBV transformed target cells, TUNEL assay; details: prior incubation of target cells (2.5 μM DMS), 8 hr CH-11 100 ng/ml, serum-free RPMI 1640, FIG. 5B
Method: In some of the examples below, the TUNEL assay was used. TdT-mediated dUTP-biotin nick end-labeling (TUNEL) assay was performed as described [see (Gorczyca, W, et al. Leukemia 7, 659-70 (1993)]. Briefly, cells were fixed in 1% buffered formaldehyde (pH 7.4) for 15 min on ice, washed in phosphate-buffered saline (PBS) and stored at 4° C. in 70% ethanol. Subsequently, cells were resuspended in 50 μl of a solution containing: 5 unites of terminal deoxynucleotidyl transferase (Boehringer Mannheim, Indianapolis, Ind.), 2.5 mM CoCl2,0.2 M potassium cacodylate, 25 mM Tris-HCl, 0.25 mg/ml bovine serum albumin, 0.5 nmoles biotin-16-dUTP (Boehringer Mannheim Biochemicals, Indianapolis, Ind.). […] Green (b-dUTP) and red (DNA) fluorescence of individual cells were measured with an EPICS Elite Flow Cytometer (Coulter, Hialeah. Fla., USA).
SPP, a potent derivative of sphingosine, has been recently shown to activate a pertussis toxin-sensitive G protein and to inhibit Fas-mediated cell death, Therefore, the ability of SPP to inhibit apoptosis in RA lymphocytes was investigated Apoptosis induced by 8 hr stimulation with the anti-Fas antibody CH-11 (100 ng/ml) was determined in EBV transformed target cells in the presence FIG. 5B, dashed bars) or absence (FIG. 5B, open bars) of 2.5 μM DMS in serum-free RPMI 1640 medium supplemented with insulin and transferrin. […]

[5] = system: caspases (CPP32, PARP cleavage); experiment: Western blot of CPP32 and PARP cleavage after anti-Fas antibody stimulation, with or without caspase inhibitor; details: preincubated 1 hr with 40 μM, then 100 ng/ml anti-Fas antibody
Method: In some examples below, Western blots were performed. For Western blot analysis, 5×10^6 cells were washed and suspended in 100 μl of lysis buffer [1% sodium dodecyl sulfate (SDS), 1 mM sodium vanadate, 10 mM Tris (pH 7.6)], and boiled for 5 min. After micro-centrifugation at 14,000 rpm, for 10 min, supernatants (cell lysates) were recovered. The protein concentration of the lysates was determined with bicinchoninic acid (BCA) protein assay reagent (Pierce). For CPP32 immunoblots, cell lysates (10-20 μg of protein per lane) were separated on 15% SDS-polyacrylamide gels under reducing conditions, transferred to polyvinylidene difluoride (PVDF) membranes (Millipore), and probed with mouse monoclonal anti-CPP32 (clone #19, IgG2a, from Signal Transduction Labs, Lexington, Ky.) followed by sheep F(ab′)2 fragment horseradish peroxidase-conjugated, anti-mouse Ig (Amersham). For PARP immunoblots, cell lysates (10 μg of protein per lane) were separated on 7.5% SDS-polyacrylamide gels, transferred to PVDF membrane, and probed with monoclonal mouse anti-human PARP antibody C2.10 (IgG1, Enzyme Systems Products Dublin, Calif.). Antibody binding was detected with an ECL detection system (Amersham).
Briefly, cells were preincubated for 1 hr in the presence or absence of 40 μM of Z-VAD-fmk, and subsequently incubated with 100 ng/ml of the anti-Fas antibody […]. At different time points thereafter, cells were collected, lysed and a Western blot analysis performed with the relevant antibodies.

COc1cccc(-c2cc(=O)c3ccccc3o2)c1N [PD098059, 2-(2′-amino3′-methoxyphenyl-oxanaphthalen-4-one)]
resistance to Fas-mediated cell killing [1]: reversed

pertussis toxin
resistance of RA targets to γδ T cell-mediated killing ([2]; preincubation 1 μg/ml for 1 hr, 4 hr 51Cr-release, FIG. 5E): reversed | resistance of RA targets to Fas-mediated killing [3]: reversed

CCCCCCCCCCCCCCC[C@H](O)[C@@H](N)CO (racemic) [DHS, DL-threo-dihydrosphingosine]
resistance of RA targets to apoptosis by γδ T cells ([2]; prior incubation of target cells (2.5 μM DMS), 4 hr 51Cr release, FIG. 5C): effectively reversed | resistance of RA targets to apoptosis by anti-Fas antibodies [4]: effectively reversed

COC(=O)C[C@H](NC(=O)[C@H](C)NC(=O)[C@@H](NC(=O)OCc1ccccc1)C(C)C)C(=O)CF [Z-VAD-fmk, N-benzyloxycarbonyl-Val-Ala-Asp(O-methyl)-fluromethylketone] (Cbz-Val-Ala-Asp(OMe)-CH2F)
subsequent cell death after Fas ligation [5]: blocks | cleavage of PARP ([5]; Western blot, FIG. 4A lower panel): blocks | proteolytic processing of CPP32 ([5]; Western blot, FIG. 4A upper panel): blocks
